What follows are compounds tested against T1, Delta-5-Desaturase (D5D), membrane preparations of D5D-overexpressing HEK293 6E cells (Homo sapiens, UniProt O60427) (assay: In vitro measurement of Delta-5-Desaturase inhibitory activity using DGLA-CoA and Arachidonyl-CoA mass spectrometric assays). Settings: D5D membrane 10 μg/mL, one-hour incubation, average of at least two independent runs.
T1 construct: expressed in transfected cells; host or cells: HEK293 6E cells (membrane preparation)
T1 sequence (O60427 whole entry, species assumed): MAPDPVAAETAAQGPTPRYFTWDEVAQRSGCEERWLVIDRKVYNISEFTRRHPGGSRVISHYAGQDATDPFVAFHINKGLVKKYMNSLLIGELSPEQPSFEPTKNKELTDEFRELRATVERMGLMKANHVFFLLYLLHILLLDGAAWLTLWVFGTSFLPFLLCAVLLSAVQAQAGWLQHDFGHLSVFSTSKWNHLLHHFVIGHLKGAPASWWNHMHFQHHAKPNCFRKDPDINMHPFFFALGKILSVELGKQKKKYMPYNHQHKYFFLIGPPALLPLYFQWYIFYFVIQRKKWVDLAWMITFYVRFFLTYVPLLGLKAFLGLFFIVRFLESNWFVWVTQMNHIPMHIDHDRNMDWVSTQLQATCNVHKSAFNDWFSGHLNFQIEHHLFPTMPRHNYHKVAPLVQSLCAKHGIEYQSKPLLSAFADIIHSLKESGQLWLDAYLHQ
Assay type: biochemical
Experimental: In Vitro Measurement of Delta-5-Desaturase Inhibitory Activity Using DGLA-CoA and Arachidonyl-CoA Mass Spectrometric Assays Membrane preparations of D5D-overexpressing HEK293 6E cells were prepared in which the total protein concentration was 5.6 mg/mL. Stock D5D membrane preparations were diluted in D5D assay buffer (25 mM 2-amino-2-(hydroxymethyl)-1,3-propanediol, pH 7.5 containing 10 mM MgCl2, 1 mM octyl glucoside (SigmaAldrich O-8001), 1 mM tris(2-carboxyethyl)phosphine hydrochloride (SigmaAldrich 646547)) to a final D5D membrane concentration of 10 μg/mL in an assay plate containing serially diluted test compounds. To 15 μL of this D5D preparation was added 15 μL of a substrate solution (0.25 mM NADH (nicotinamide adenine dinucleotide, Roche Diag. 10107735001), 0.25 mM adenosine triphosphate (SigmaAldrich A-3377), 0.05 mM coenzyme A hydrate (SigmaAldrich C-4282), and 0.01 mM DGLA (dihomo-g-linolenic acid, Sigma E-4504) in the same D5D assay buffer. After one-hour incubation at ambient temperature acetonitrile (30 μL) was added to quench the reaction and plates were centrifuged for 10 min @ 3,000 rpm. Mass spectrometric analysis involved a Rapidfire 360 SPE system coupled to an ABSciex API4000 Triple Quadrupole mass spectrometer using a C18 SPE cartridge (G9203-80105) with ionization in negative mode (solvent A=100% water; solvent B=100% acetonitrile, each solvent containing 5 mM ammonium acetate). DGLA-CoA and Arachidonyl-CoA were detected by multiple reaction monitoring (MRM) of the doubly charged parent ions at m/z 526.6 and 525.6, respectively. […] Sx is value from unknown sample, So is value from DMSO alone and Sc is value from no enzyme well. For CRC analysis, the % of inhibitions were analysed with 4 Parameter Logistic Model or Sigmoidal Dose-Response Model using XLfit (IDBS, Guilford, UK). The potency of the test item was expressed as IC50 nM, corresponding to the test item concentration able to inhibit the 50% of the enzyme maximal response. IC50 values were averaged values determined by at least two independent runs. The results presented in Table 15 have been generated with the in vitro assay described above. This assay may be used to test any of the compounds described herein to assess and characterize a compound's ability to inhibit D5D.
With C#CCn1c(C)cn2c(=O)c(-c3cnn(CC(F)(F)C(F)(F)F)c3)c(C(F)(F)F)nc12 [Example 85, 2-methyl-6-[1-(2,2,3,3,3-pentafluoropropyl)-1H-pyrazol-4-yl]-1-(prop-2-yn-1-yl)-7-(trifluoromethyl)-1H,5H-imidazo[1,2-a]pyrimidin-5-one] the IC50 was 7.1 nM.
Compound O=c1c(-c2cnn(CC(F)(F)C(F)(F)F)c2)c(C(F)(F)F)nc2sc(Cl)cn12 [Example 9, 2-chloro-6-[1-(2,2,3,3,3-pentafluoropropyl)-1H-pyrazol-4-yl]-7-(trifluoromethyl)-5H-[1,3]thiazolo[3,2-a]pyrimidin-5-one] has an IC50 of 6.4 nM.
CN(C)Cc1nn2c(=O)c(-c3cnn(CC(F)(F)C(F)(F)F)c3)c(C(F)(F)F)nc2s1 [Example 105, 2-[(dimethylamino)methyl]-6-[1-(2,2,3,3,3-pentafluoropropyl)-1H-pyrazol-4-yl]-7-(trifluoromethyl)-5H-[1,3,4]thiadiazolo[3,2-a]pyrimidin-5-one] was tested, and the IC50 was 10500 nM.
With O=c1c(-c2cnn(CCC(F)(F)F)c2)c(C(F)(F)F)nc2n1CCC2 [Example 21, 2-(trifluoromethyl)-3-[1-(3,3,3-trifluoropropyl)-1H-pyrazol-4-yl]-4H,6H,7H,8H-pyrrolo[1,2-a]pyrimidin-4-one] the IC50 was 235 nM.
Compound Cc1cn2c(=O)c(-c3cnn(C[C@@H]4CC4(F)F)c3)c(C(F)(F)F)nc2n1C (single isomer, unassigned) [Example 110] has an IC50 of 24.1 nM.
In the case of O=c1c(-c2cnn(CC(F)(F)C(F)(F)F)c2)c(C(F)(F)F)nc2n1CCC2 [Example 19, 3-[1-(2,2,3,3,3-pentafluoropropyl)-1H-pyrazol-4-yl]-2-(trifluoromethyl)-4H,6H,7H,8H-pyrrolo[1,2-a]pyrimidin-4-one], the IC50 is reported as 46.3 nM.
Compound O=c1c(-c2cnn(CCC(F)(F)F)c2)c(C(F)(F)F)nc2sc(CO)nn12 [Example 46, 2-(hydroxymethyl)-7-(trifluoromethyl)-6-[1-(3,3,3-trifluoropropyl)-1H-pyrazol-4-yl]-5H-[1,3,4]thiadiazolo[3,2-a]pyrimidin-5-one] has an IC50 of 36.1 nM.
[2H]C([2H])([2H])n1c(C)cn2c(=O)c(-c3cnn(CCC(F)(F)F)c3)c(C(F)(F)F)nc12 [Example 78, 1-(^2H3)methyl-2-methyl-7-(trifluoromethyl)-6-[1-(3,3,3-trifluoropropyl)-1H-pyrazol-4-yl]-1H,5H-imidazo[1,2-a]pyrimidin-5-one] gave an IC50 of 28 nM.
Work on Cc1nn2c(=O)c(-c3cnn(C[C@H]4CC4(F)F)c3)c(C(F)(F)F)nc2s1 (single isomer, unassigned) [Example 111] yielded an IC50 of 452 nM.
Cc1nn2c(=O)c(-c3cnn(CC4CC4(F)F)c3)c(C(F)(F)F)nc2s1 (stereo not shown) [Example 23, 6-{1-[(2,2-difluorocyclopropyl)methyl]-1H-pyrazol-4-yl}-2-methyl-7-(trifluoromethyl)-5H-[1,3,4]thiadiazolo[3,2-a]pyrimidin-5-one] showed an IC50 of 158 nM.
With Cc1cn2c(=O)c(-c3cnn(CC(F)(F)C(F)(F)F)c3)c(C(F)(F)F)nc2n1-c1ccncc1 [Example 102, 2-methyl-6-[1-(2,2,3,3,3-pentafluoropropyl)-1H-pyrazol-4-yl]-1-(pyridin-4-yl)-7-(trifluoromethyl)-1H,5H-imidazo[1,2-a]pyrimidin-5-one] the IC50 was 8400 nM.
Cc1nn2c(=O)c(-c3ccn(CC(F)(F)C(F)(F)F)n3)c(C(F)(F)F)nc2s1 [Example 30, 2-methyl-6-[1-(2,2,3,3,3-pentafluoropropyl)-1H-pyrazol-3-yl]-7-(trifluoromethyl)-5H-[1,3,4]thiadiazolo[3,2-a]pyrimidin-5-one] was tested, and the IC50 was 17900 nM.
Work on Cc1nn2c(=O)c(-c3cnn(CC4COC4)c3)c(C(F)(F)F)nc2s1 [Example 29, 2-methyl-6-{1-[(oxetan-3-yl)methyl]-1H-pyrazol-4-yl}-7-(trifluoromethyl)-5H-[1,3,4]thiadiazolo[3,2-a]pyrimidin-5-one] yielded an IC50 of 1580 nM.
Cc1nn2c(=O)c(-c3cnn(CCC(F)(F)F)c3)c(C(F)(F)F)nc2n1C [Example 14, 2,3-dimethyl-5-(trifluoromethyl)-6-[1-(3,3,3-trifluoropropyl)-1H-pyrazol-4-yl]-3H,7H-[1,2,4]triazolo[1,5-a]pyrimidin-7-one] showed an IC50 of 1430 nM.
In the case of Cc1cn2c(=O)c(-c3cnn(CC4CC4(F)F)c3)c(C(F)(F)F)nc2n1C (stereo not shown) [Example 59, 6-{1-[(2,2-difluorocyclopropyl)methyl]-1H-pyrazol-4-yl}-1,2-dimethyl-7-(trifluoromethyl)-1H,5H-imidazo[1,2-a]pyrimidin-5-one], the IC50 is reported as 11 nM.
Cc1cn2c(=O)c(-c3cnn(CCC(F)(F)F)c3)c(C(F)(F)F)nc2n1C[C@H]1CC1(F)F (single isomer, unassigned) [Example 116] gave an IC50 of 1170 nM.
For O=c1c(-c2cnn(CC(F)(F)C(F)(F)F)c2)c(C(F)(F)F)nc2sc(CO)cn12 [Example 32, 2-(hydroxymethyl)-6-[1-(2,2,3,3,3-pentafluoropropyl)-1H-pyrazol-4-yl]-7-(trifluoromethyl)-5H-[1,3]thiazolo[3,2-a]pyrimidin-5-one], the IC50 was 45.6 nM.
Work on [2H]C([2H])([2H])n1c(C)cn2c(=O)c(-c3cnn(CC(F)(F)C(F)(F)F)c3)c(C(F)(F)F)nc12 [Example 77, 1-(2H3)methyl-2-methyl-6-[1-(2,2,3,3,3-pentafluoropropyl)-1H-pyrazol-4-yl]-7-(trifluoromethyl)-1H,5H-imidazo[1,2-a]pyrimidin-5-one] yielded an IC50 of 24 nM.
COCc1nn2c(=O)c(-c3cnn(CCC(F)(F)F)c3)c(C(F)(F)F)nc2s1 [Example 10, 2-(methoxymethyl)-7-(trifluoromethyl)-6-[1-(3,3,3-trifluoropropyl)-1H-pyrazol-4-yl]-5H-[1,3,4]thiadiazolo[3,2-a]pyrimidin-5-one] gave an IC50 of 27.4 nM.
Work on O=c1c(-c2cnn(CC(F)(F)C(F)(F)F)c2)c(C(F)(F)F)nc2sccn12 [Example 1, 6-[1-(2,2,3,3,3-pentafluoropropyl)-1H-pyrazol-4-yl]-7-(trifluoromethyl)-5H-[1,3]thiazolo[3,2-a]pyrimidin-5-one] yielded an IC50 of 3.8 nM.
Cc1cn2c(=O)c(-c3ccc(OCC(F)(F)F)cc3)c(C(F)(F)F)nc2[nH]1 [Example 75, 2-methyl-6-[4-(2,2,2-trifluoroethoxy)phenyl]-7-(trifluoromethyl)-1H,5H-imidazo[1,2-a]pyrimidin-5-one] was tested, and the IC50 was 6.3 nM.
Work on Cc1cn2c(=O)c(-c3cnn(CCC(F)(F)F)c3)c(C(F)(F)F)nc2n1CC1CC(F)(F)C1 [Example 82, 1-[(3,3-difluorocyclobutyl)methyl]-2-methyl-7-(trifluoromethyl)-6-[1-(3,3,3-trifluoropropyl)-1H-pyrazol-4-yl]-1H,5H-imidazo[1,2-a]pyrimidin-5-one] yielded an IC50 of 2030 nM.
With COc1cn2c(=O)c(-c3cnn(CCC(F)(F)F)c3)c(C(F)(F)F)nc2n1C [Example 72, 2-methoxy-1-methyl-7-(trifluoromethyl)-6-[1-(3,3,3-trifluoropropyl)-1H-pyrazol-4-yl]-1H,5H-imidazo[1,2-a]pyrimidin-5-one] the IC50 was 135 nM.
For COCc1nn2c(=O)c(-c3cnn(CC(F)(F)C(F)(F)F)c3)c(C(F)(F)F)nc2s1 [Example 42, 2-(methoxymethyl)-6-[1-(2,2,3,3,3-pentafluoropropyl)-1H-pyrazol-4-yl]-7-(trifluoromethyl)-5H-[1,3,4]thiadiazolo[3,2-a]pyrimidin-5-one], the IC50 was 27.4 nM.
Compound Cc1cn2c(=O)c(-c3cnn(CCC(F)(F)F)c3)c(C(F)(F)F)nc2n1C[C@@H]1CC1(F)F (single isomer, unassigned) [Example 115] has an IC50 of 39 nM.
With Cc1cn2c(=O)c(-c3cnn(CCC(F)(F)F)c3)c(C(F)(F)F)nc2n1CC1CC1 [Example 66, 1-(cyclopropylmethyl)-2-methyl-7-(trifluoromethyl)-6-[1-(3,3,3-trifluoropropyl)-1H-pyrazol-4-yl]-1H,5H-imidazo[1,2-a]pyrimidin-5-one] the IC50 was 6.6 nM.
For Cc1cn2c(=O)c(-c3ccc(OCC(F)(F)F)cc3)c(C(F)(F)F)nc2n1CC1CC1 [Example 68, 1-(cyclopropylmethyl)-2-methyl-6-[4-(2,2,2-trifluoroethoxy)phenyl]-7-(trifluoromethyl)-1H,5H-imidazo[1,2-a]pyrimidin-5-one], the IC50 was 356 nM.
Compound Cc1cn2c(=O)c(-c3cnn(CC(F)(F)C(F)(F)F)c3)c(C(F)(F)F)nc2n1CCO [Example 79, 1-(2-hydroxyethyl)-2-methyl-6-[1-(2,2,3,3,3-pentafluoropropyl)-1H-pyrazol-4-yl]-7-(trifluoromethyl)-1H,5H-imidazo[1,2-a]pyrimidin-5-one] has an IC50 of 11.7 nM.

From US11512097B2, “Heterocyclic compounds as Delta-5 desaturase inhibitors and methods of use” (Amgen Inc., priority 2019, dated 2022)
